A word on the IC50: it is the concentration at which inhibition is half-maximal.

One assay addresses T1, VPAC2 (Homo sapiens, UniProt P41587).
T1 construct: gene VIPR2
T1 sequence (P41587 24-438): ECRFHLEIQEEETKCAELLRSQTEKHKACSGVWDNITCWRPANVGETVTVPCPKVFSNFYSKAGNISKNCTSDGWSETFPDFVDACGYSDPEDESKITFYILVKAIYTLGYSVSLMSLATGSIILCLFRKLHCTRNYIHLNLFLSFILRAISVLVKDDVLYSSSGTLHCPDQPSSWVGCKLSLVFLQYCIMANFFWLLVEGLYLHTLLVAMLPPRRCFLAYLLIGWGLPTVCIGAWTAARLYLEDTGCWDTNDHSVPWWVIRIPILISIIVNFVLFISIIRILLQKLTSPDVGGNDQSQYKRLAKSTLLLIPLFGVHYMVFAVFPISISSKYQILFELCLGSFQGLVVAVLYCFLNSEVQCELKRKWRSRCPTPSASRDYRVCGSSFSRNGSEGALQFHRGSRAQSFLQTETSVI
As to the kind of experiment: FAM-VIP competition binding by FACS ([…] VIP binding left at […]) and aequorin calcium mobilization in CHO cells expressing VPAC2; IC50 extrapolated from the partial calcium inhibition. It is filed as cell-based.

The next assay addresses T2, VPAC1 (Homo sapiens, UniProt P32241).
T2 construct: gene VIPR1
T2 sequence (P32241 31-457): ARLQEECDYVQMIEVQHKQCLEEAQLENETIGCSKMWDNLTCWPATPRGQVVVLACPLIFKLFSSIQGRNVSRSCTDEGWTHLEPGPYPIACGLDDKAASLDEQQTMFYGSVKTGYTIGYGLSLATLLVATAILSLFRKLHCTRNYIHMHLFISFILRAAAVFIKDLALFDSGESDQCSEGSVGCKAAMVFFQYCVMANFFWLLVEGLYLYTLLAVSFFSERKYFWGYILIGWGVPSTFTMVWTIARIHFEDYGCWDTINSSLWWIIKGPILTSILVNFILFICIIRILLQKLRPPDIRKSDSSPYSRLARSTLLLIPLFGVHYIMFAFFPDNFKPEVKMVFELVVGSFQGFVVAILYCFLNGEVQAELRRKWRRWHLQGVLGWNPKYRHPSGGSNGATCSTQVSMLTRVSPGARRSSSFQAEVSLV
Kind of assay: FAM-VIP competition binding by FACS ([…] VIP binding left at […]) and aequorin calcium mobilization in CHO cells expressing VPAC1; IC50 extrapolated from the partial calcium inhibition. Format: cell-based.

`CCCSc1nc(N[C@@H]2C[C@H]2c2ccc(F)c(F)c2)c2nnn([C@@H]3C[C@H](OCCO)[C@@H](O)[C@H]3O)c2n1` [ticagrelor]: the figures for the IC50 on VPAC2 and on VPAC1 were around 20 µM and around 50 µM, respectively.

(Values after PMC8637020, “Drug Repositioning For Allosteric Modulation of VIP and PACAP Receptors” (Frontiers in Endocrinology, 2021).)
